# Measured values from PMC5478271, “Chemical structure-guided design of dynapyrazoles, cell-permeable dynein inhibitors with a unique mode of action” (eLife, 2017).
# Key:
# [1] = system: IMCD3 cells stably expressing mNeonGreen-IFT88; assay: Intraflagellar transport assay (mNeonGreen-IFT88 particles in primary cilia); format: cell-based, murine
# From the text: To quantitatively assess the effect of dynapyrazole-A treatment on intraflagellar transport, we analyzed time-lapse images of cilia using KymographDirect, an automated analysis algorithm that extracts particle velocities from kymographs ([Mangeol et al., 2016]). […] Under control conditions (0.3% DMSO, Figure 4B), anterograde particles moved with a speed of 694 ± 117 nm/s (Figure 4D and F, mean ± S.D., 429 particles, 38 cilia) and retrograde particles moved at 421 ± 156 nm/s (Figure 4D and F, 244 particles, 38 cilia), consistent with previous studies ([Ye et al., 2013]). […] After 10 min of treatment, reductions in velocities were similar to those at the 5 min time point (Figure 4—figure supplement 1). Treatment of cilia with a higher dynapyrazole-A concentration (10 µM) slowed both retrograde- and anterograde-directed motion (Figure 4—figure supplement 2). […] We note that dynapyrazole-A, at concentrations close to the IC50 for inhibiting microtubule gliding in vitro, alters intraflagellar transport in a manner similar to what has been observed following dynein 2 loss-of-function in Chlamydomonas ([Engel et al., 2012]).
# Murine inner medullary collecting duct (IMCD3) cells stably expressing mNeonGreen-IFT88 were maintained in DMEM/F12 supplemented with 10% FBS. Cells were typically passaged fewer than 10 times following thawing of frozen stocks. Cells were described previously ([Ye et al., 2013]). 6 × 10^5 cells were seeded onto 22-mm coverslips in a six well plate and incubated for 24 hr at 37°C. The media was then replaced with DMEM/F12 +0.2% FBS and cells were incubated 24 hr to promote cilium formation. Immediately prior to imaging, media was replaced with phenol red-free media (Leibovitz's L-15 + 0.2% FBS) containing either carrier solvent control (0.3% DMSO) or compound. IFT88 transport was observed using a TE2000-E spinning disk confocal microscope (Nikon PlanApo 100x/1.45 objective lens) fitted with a Photometrics Cascade II (EMCCD 512) camera and imaged at a frame rate of 2 frames/s. Kymographs were generated in FIJI using KymographClear and the velocities of mNeonGreen-IFT88 foci movement were quantified by KymographDirect ([Mangeol et al., 2016]). The algorithm used to identify IFT88 foci could identify particles with velocitities ≥ 25nm/s as moving particles.
# For washout experiments, cells were exposed to a 5-min compound treatment as described above. Cells were then washed twice with 5 mL of L-15 supplemented with 10% FBSand 0.3% DMSO. A 5-min incubation followed each wash. Imaging was performed as described above immediately after the second 5-min wash and incubation step had been completed. For washout experiments shown in Figure 4—figure supplement 3, wash steps were performed with either L-15 supplemented with 10% FBS or L-15 supplemented with 0.2% FBS. Following washout of compound, cells were incubated at 37° for 60-min and then imaged.
# Statistical analysis of intraflagellar transport frequencies: Run frequencies output directly from KymographDirect were tabulated across all cilia imaged in a given condition (see Figure 4—figure supplement 2). For each of two experimental conditions (5 µM 8, 10 µM 8) and the respective controls, an un-paired T-test was performed for the difference of means control and compound treatment. This analysis was performed for each direction of motion.
# CAD cells = assay: Lysosome motility assay in CAD cell neurites (LysoTracker); format: cell-based, murine; conditions: for Percentage of retrograde-directed lysosomes moving slower than 25 nm/s: 60 min; for Average track length of moving particles (lysosomes): 1 min imaging, control 32 ± 11 µm
# From the text: This bidirectional transport of lysosomes requires kinesins and dynein 1 and can be observed by imaging live cells stained with the LysoTracker dye ([Vale, 2003]; [Pu et al., 2016]). A coupling between anterograde and retrograde motion has been described for membrane-bound organelles, with disruption of dynein-driven motion blocking bi-directional organelle motility ([Barlan et al., 2013]). We imaged control solvent (0.1% DMSO) treated cells and observed bidirectional motion of LysoTracker-labelled puncta (Figure 5E,H,K, Video 5). Overlays of successive images from a time-lapse series, color-coded for displacement, reveal organelle displacements (Figure 5H–J). […] Treatment with dynapyrazole-A suppressed bidirectional motion. In particular, the percentage of retrograde-directed lysosomes moving slower than 25 nm/s increased to ~47% (3.5µM) and ~59% (5µM) while the proportion of lysosomes moving at speeds > 250 nm/s decreased to below 10% (Figure 5N). We observed equivalent effects of dynapyrazole-A on anterograde motion velocities (kymographs in Figure 5K,L and M). In control cells, lysosomes with measureable displacements had trajectories that averaged 32 ± 11 µm (Figure 5O). Dynapyrazole-A (3.5 µM, Figure 5I and L) reduced the average track length of moving particles to 15.7 ± 4.7 µm, which can be seen as white punctae that result from the overlay of multiple color-coded frames without particle translocation. A higher dose of dynapyrazole-A 5 µM) shortened the average track length of moving particles to 6.7 ± 2.7 µm (Figure 5J,M,O). […] Higher concentrations of dynapyrazole-A (15 µM) lowered intracellular ATP levels by ~70% at 3 hr (Figure 5—figure supplement 5).
# CAD cells (catecholaminergic neuronal tumor cell line, RRID:CVCL_0199) were maintained in DMEM/F12 medium with 10% Fetal Bovine Serum ([Qi et al., 1997]). Cell line identity was confirmed by the morphological response to serum withdrawal (i.e. neurite formation), a previously-documented characteristic of this cell line ([Qi et al., 1997]). 24 hr before the experiment cells were plated on coverslips in serum-free medium to induce neurite formation. Cells were treated with inhibitors or control solvent (0.1% DMSO final in all experiments) for 60 min, then lysosomes were labeled with 0.1 µM (final concentration) LysoTracker Red DND-99 (Molecular Probes) and used for microscopy immediately after LysoTracker addition.
# Microscopy was performed using a Nikon TE-2000 inverted microscope equipped with a LED X-Cite illuminator (Lumen Dynamics) at 37 degrees. Images were acquired with a Hamamatsu ORCA-Flash 4.0 camera driven by MetaMorph software at a rate of 1 frame per second for 1 min. Lysosome motility in neurites was analyzed using Diatrack software (http://www.diatrack.org/), particle velocities were measured from frame to frame and the total length of trajectories divided by the number of analyzed organelles was calculated for every experimental condition.
# [2] = 5 µM 5 min, then washout 10 min in 10% FBS, 0.3% DMSO
# [3] = 5 µM, then 0.2% FBS washout for 1 hr
# [4] = 5 µM, then 10% FBS washout for 1 hr
structure (smiles),measurement,setting,value
"N#Cc1c(C2(c3ccc(Cl)cc3)CC2)nn2c1[nH]c(=O)c1cc(I)ccc12 [Compound 8, 2-[1-(4-chlorophenyl)cyclopropyl]-7-iodo-5-oxo-4H-pyrazolo[1,5-a]quinazoline-3-carbonitrile]","Fa, anterograde frequency after washout",[1]; [2],14.2 ± 6 counts/minute
same,"Fr, retrograde frequency after washout",[1]; [2],9.6 ± 7 counts/minute
same,"Va, anterograde velocity after washout",[1]; [2],697 ± 149 nm/s
same,"Vr, retrograde velocity after washout",[1]; [2],467 ± 136 nm/s
same,Reduction of anterograde particle velocities,"[1]; 5 µM, 5 min, versus DMSO control",~ 18%
same,"Fr, retrograde frequency","[1]; 5 µM, 5 min, DMSO control 6.5 ± 4",4.1 ± 3 counts/minute
same,"Fa, anterograde frequency","[1]; 5 µM, 5 min, DMSO control 11.3 ± 3",8.5 ± 5 counts/minute
same,"Vr, retrograde velocity","[1]; 5 µM, 5 min, DMSO control 421 ± 156",156 ± 107 nm/s
same,"Va, anterograde velocity","[1]; 5 µM, 5 min, DMSO control 694 ± 117",566 ± 116 nm/s
same,"Fr, retrograde frequency","[1]; 5 µM, 10 min, DMSO control 5.9 ± 3",4.2 ± 3 counts/minute
same,"Fa, anterograde frequency","[1]; 5 µM, 10 min, DMSO control 10.2 ± 3",6.9 ± 4 counts/minute
same,"Vr, retrograde velocity","[1]; 5 µM, 10 min, DMSO control 354 ± 134",202 ± 180 nm/s
same,"Va, anterograde velocity","[1]; 5 µM, 10 min, DMSO control 655 ± 124",572 ± 121 nm/s
same,"Fa, anterograde frequency after low-serum washout",[1]; [3],10.1 ± 4 counts/minute
same,"Fr, retrograde frequency after low-serum washout",[1]; [3],5.2 ± 2 counts/minute
same,"Va, anterograde velocity after low-serum washout",[1]; [3],620 ± 134 nm/s
same,"Vr, retrograde velocity after low-serum washout",[1]; [3],219 ± 117 nm/s
same,"Fa, anterograde frequency after high-serum washout",[1]; [4],18.8 ± 5 counts/minute
same,"Fr, retrograde frequency after high-serum washout",[1]; [4],12.4 ± 6 counts/minute
same,"Va, anterograde velocity after high-serum washout",[1]; [4],660 ± 112 nm/s
same,"Vr, retrograde velocity after high-serum washout",[1]; [4],441 ± 156 nm/s
same,"Fa, anterograde frequency",[1]; 10 µM,6.8 ± 4 counts/minute
same,"Fr, retrograde frequency",[1]; 10 µM,4.0 ± 2 counts/minute
same,"Va, anterograde velocity",[1]; 10 µM,466 ± 183 nm/s
same,"Vr, retrograde velocity",[1]; 10 µM,121 ± 78 nm/s
same,Proportion of lysosomes moving at speeds > 250 nm/s,"CAD cells; 3.5 µM and 5 µM, control ~20%",below 10%
same,Percentage of retrograde-directed lysosomes moving slower than 25 nm/s,"CAD cells; 3.5 µM, control ~20%",~ 47%
same,Average track length of moving particles (lysosomes),CAD cells; 3.5 µM,15.7 ± 4.7 µm
same,Percentage of retrograde-directed lysosomes moving slower than 25 nm/s,"CAD cells; 5 µM, control ~20%",~ 59%
same,Average track length of moving particles (lysosomes),CAD cells; 5 µM,6.7 ± 2.7 µm
